Literature values in patent publication US4279898A, “In vivo inhibitors of cholesterol biosynthesis” (Research Foundation of the City University of New York, priority 1980, dated 1981).

System: 5-phosphomevalonate kinase
Conditions: publications by the inventors

CC(O)(CCCP(=O)(O)O)CC(=O)O (stereo not shown) [5-carboxy-4-hydroxy-4-methylpentyl-1-phosphonic acid]
inhibition of 5-phosphomevalonate kinase: inhibition
